“Also recorded” adds a separate entry of the source.
Tests used:
CAV1-ANX2b heterocomplex = experiment: Immunoprecipitation and immunoblot for the CAV1-ANX2b heterocomplex in morpholino-injected embryos; format: in vivo, zebrafish; details: for CAV1-ANX2b heterocomplex present / ANX2b protein detected / CAV1 protein detected: 48 hpf embryos, MO injected at 1-8 cell stage; for ANX2b protein detected / CAV1 protein detected: FIG. 3A
Protocol: (§1) All morpholino oligonucleotides were commercially obtained (GeneTools LLC, Philomath, Oreg.). Sequences used were: cav1, 5′-[…]-3′ (SEQ ID NO: 10); anx2b, 5′-[…]-3′ (SEQ ID NO: 11); anx2b (4 base mismatch), 5′-GCCAATT TCGTTAGTAGTTGAAGAG-3 (SEQ ID NO: 12)′; anx2a, 5′-[…]-3′ (SEQ ID NO: 13). MOs were dissolved in Danieau buffer (3) at a concentration of (1-3 μg/μl) and pressure injected into the yolk of early stage larvae (1-8 cell stage) as described (3).
The embryos were lysed in 1 ml of buffer (150 mM NaCl, 1.0% NP-40, 0.5% deoxycholate, 0.1% SDS, 50 mM Tris, pH 8.0) and protein amounts determined by Lowry. Equal amounts of lysate (50 ug) were mixed together in the lysis buffer for 1 hour at 37 °C. At the end of the incubation protein A-sepharose beads (blocked with lysis buffer and 30 mg/ml BSA) were used to pre-clear the samples. Pre-cleared samples were than incubated for 18 hours at 4° C. with the appropriate antibody (2 ug/sample) before adding blocked, protein A-sepharose beads and incubating an additional 2 hours at 4° C. The beads were collected by centrifugation, washed five times in high salt RIPA buffer (500 mM NaCl). The samples were than analyzed by SDS-PAGE and immunoblot.

zebrafish larvae = experiment: In vivo assay for cholesterol transport (NBD-cholesterol intestinal fluorescence); details: 5 dpf larvae, three independent experiments, ANOVA p<0.00001
Protocol: Embryos (uninjected or anx2b MO injected) at 5 dpf were labeled with NBD-cholesterol (1,26) and blind-sorted into three groups based on intestinal fluorescence, each assigned a numerical value: 1=no or weak fluorescence, 2=moderate, 3=strong; total n=41 uninjected, 55 injected.
Zebrafish larvae were labeled (2 h) with NBD-Cholesterol prepared as previously described (1) in embryo medium (21), anesthetized (tricaine, 170 ug/ml) and placed in depression slides. Fluorescent images were captured using a Zeiss Axiocam 2 mounted on a Leica MZFL-III. For statistical analysis intestinal fluorescence was scored on a three point scale (weak, moderate and bright) and analyzed (ANOVA).

zebrafish embryos [1] = experiment: Developmental phenotype of morpholino-injected embryos (morphology, myoD in situ hybridization); format: in vivo
Protocol: as §1
Methods for breeding and raising zebrafish were followed as described (21). Embryos were obtained from natural matings of wild-type (Oregon, AB) fish and staged according to criteria previously outlined (22) and by hours post-fertilization (hpf). Digoxigenin-labeled RNA probes synthesized for each gene were hybridized to embryos or larvae at various developmental stages. In situ hybridization for anx2b and cav1 expression was carried out as previously described (22).

zebrafish embryos [2] = experiment: Uptake of 14C-labeled glucose in embryos; format: in vivo; details: 5 dpf embryos, data not shown
Protocol: Embryos (uninjected or anx2b MO injected) at 5 dpf were placed at ten per tube in 0.5 ml embryo medium (21) containing methyl-D-glucose, 3-O-[glucose-^14C(U)] (American Radiolabeled Chemicals, Inc.) at a concentration of 12.5 μM and incubated at room temperature for 2 hours. Embryos were then chased with 0.5 ml embryo medium with 125 μM unlabeled glucose and incubated 30 minutes, then rinsed three times with chase solution, transferred to fresh tubes, vigorously homogenized with a pestle, and transferred into scintillation fluid for liquid scintillation counting. Three separate trials with 2 or 3 tubes each of uninjected and injected embryos were performed.

zebrafish embryos [3] = experiment: Embryo lipid composition by SPE and GC-MS (cholesterol, cholesteryl ester, triglycerides); format: in vivo; details: 72 hpf embryos, FIG. 5C
Protocol: Approximately 80 embryos at 72 hpf were placed in 0.7 ml of MBST/OG (25 mM MES, pH 6.5, 0.15 M NaCl, 1% (v/v) Triton X-100, 60 mM octylglucoside, 0.1% (w/v) SDS) and homogenized with a Tissue-Tearor™ homogenizer (Biospec Products, Inc). The sample was then sonicated (50 watts) for ten seconds, three times on ice, centrifuged at 1000×g for 5 minutes and the supernatant collected. Neutral lipids were isolated by Solid Phase Extraction (SPE) on an Oasis HLB 5 cc/200 mg LP Glass Cartridges (Waters, Milford Mass.). The columns were pre-conditioned with 3 ml of methyl tetr-butyl ether, then 3 ml methanol, and finally 3 ml of water. The sample (0.5 ml) was mixed with acetic acid (1 ml) and 5α-androstane-3α-17β-diol (recovery standard, 40 μl) and immediately applied to the column. The column was washed with 2 ml of 2% acetic acid followed by 2 ml of methanol (2%):acetic acid (2%). Neutral lipids were eluted with 3 ml of methyl tetr-butyl ether:methanol:acetic acid (75:23:2). The eluted material was dried under nitrogen, dissolved in 150 μl of hexane:isopropanol (3:2) and transferred to a gas chromatography vial. The material was dissolved in 20 μl of hexamethyldisilazane: pentafluoropropionic anhydride:acetonitrile (100:2:20) for 20 minutes at room temperature and […] was then injected onto a Chemstation gas chromatograph with a mass selective detector, Model 6890 (Agilent Technologies, Wilmington, Del.) and equipped with a SPE HT5 Aluminum Clad Fused Silica Capillary Column, 12 m, 0.32 mm ID, 0.1 um film (Supelco, Bellefonte, Pa.). The inlet temperature was 220° C., the interface temperature was 340° C. and the oven program was 140° C., hold 3 min, 20° C./min to 380° C., hold 5 min. Method of lipid detection was SIM mode with the following mass numbers: 416 for 5α-androstane-3α-17β-diol, 436 for TMS-cholesterol, 368 for cholesterol esters, 98 for triglycerides. A two step procedure was used to quantify the lipids. […]

Substance	CAV1-ANX2b heterocomplex present (CAV1-ANX2b heterocomplex)	Intestinal fluorescence after feeding NBD-cholesterol (zebrafish larvae)	Developmental abnormalities (zebrafish embryos [1]; zebrafish, in vivo)	Uptake of 14C-labeled glucose versus uninjected embryos (zebrafish embryos [2])	ANX2b and complex detected (duration of MO effect) (CAV1-ANX2b heterocomplex; 24, 48 and 72 hpf, FIG. 5B lanes 2-4)	ANX2b protein detected (CAV1-ANX2b heterocomplex)	CAV1 protein detected (CAV1-ANX2b heterocomplex)	ANX2b detected (duration of MO effect) (CAV1-ANX2b heterocomplex; 96 hpf, FIG. 5B lane 5)	Level of cholesterol versus uninjected embryos (zebrafish embryos [3])	Level of cholesteryl ester versus uninjected embryos (zebrafish embryos [3])	Level of triglycerides versus uninjected embryos (zebrafish embryos [3])	Survival to the stage where NBD-cholesterol is ingested (zebrafish embryos [1]; MO-injected larvae)	Somite morphology (myoD riboprobe) (zebrafish embryos [1]; zebrafish, in vivo)
anx2b MO containing 4 bases mismatched: control morpholino, anx2b with 4 base mismatch, 5′-GCCAATT TCGTTAGTAGTTGAAGAG-3 (SEQ ID NO: 12) (antisense GCCAATTTCGTTAGTAGTTGAAGAG; all phosphorodiamidate morpholino (PMO); mismatch control morpholino) [reference compound]	contained the CAV1-ANX2b heterocomplex exactly like the uninjected embryos												
anx2b MO: morpholino antisense oligonucleotide against zebrafish anx2b, 5′-GCCATTTTCCTTAGTTGTTGTAGAG-3′ (SEQ ID NO: 11) (all phosphorodiamidate morpholino (PMO))	only CAV protein monomer	a subset of the injected larvae failed to accumulate the fluorescent cholesterol analog in the digestive tract; also recorded: significant reduction in intestinal fluorescence	did not show any obvious developmental abnormalities	the same	no ANX2b and thus no complex is detected	did not contain ANX2b protein	only detected as a monomer	again detected	significantly lower	significantly lower	unaffected		
cav1 MO: morpholino antisense oligonucleotide against zebrafish cav1, 5′-TGTCCCGTCCTTGTATCCGCTAGTC-3′ (SEQ ID NO: 10) (all phosphorodiamidate morpholino (PMO))	only ANX2 protein monomer and no complex		early developmental abnormalities including defects in axis elongation and somite patterning			seen only as a monomer	not detected					failed to survive to a stage where NBD-cholesterol is ingested	abnormal somites
anx2a MO: morpholino antisense oligonucleotide against zebrafish anx2a, 5′-CTAAGAACTCAGAGACCAAAGCCAT-3′ (SEQ ID NO: 13) (all phosphorodiamidate morpholino (PMO)) [reference compound]	contained the CAV1-ANX2b heterocomplex exactly like the uninjected embryos												
